Measured values reported in patent US4748161A, “Triterpenyl esters of organic acids and hypolipidemic agents composed of them” (Amano Pharmaceutical Co., Ltd., priority 1984, dated 1988).
Read-outs that look alike come from different tables or passages of the source.

Columns and labels:
[1] = tested on: serum lipids and serum lipid hydroperoxide; test: Pharmacological test method B for anti-hyperlipidemic activity (serum lipids, 4 weeks feeding); assay type: in vivo, male Wistar strain rats; design: AI Diff.: unit not given here; details: for AI [(TC - HDL-C)/(HDL-C)] / HDL-C in serum / LPO in serum / PL in serum / TC in serum / TG in serum: 1% in hyperlipidemic diet, 4 weeks; for change in vivo at 1 % in diet: Rattus norvegicus, po, 672 h; for change in vivo at 1 % in diet / AI Diff. / HDL-C Diff. / LPO Diff. / PL Diff. / TC % of diff. / TC Diff. / TG Diff.: versus control group; for HDL-C rise compared with normal diet group: versus normal diet group; for TG % of diff. (Table 20) / TG Diff. (Table 20): Table 20, versus control group
Experimental: Pharmacological test method B for anti-hyperlipidemic acitivity (the term "method B" was used in the present specification)
(§1) Male Wistar strain rats (100±1 g, each 8 rats were formed into a group except that the control group fed with a hyperlipidemic diet was formed of 16 rats) were used as test animals. A powdery diet (CE-2, supplied by Clea Japan, Inc.) was used as ordinary diet. The hyperlipidemic diet was prepared by fortifying the ordinary diet with cholesterol (1%) and cholic acid (0.5%). Each test compound (1%) for administration was admixed with the hyperlipidemic diet. Each two rats were kept in a cage and given the prescribed diet and water ad libitum. Thus the rats were fed for 4 weeks at a constant temperature of 23±1° C. and a constant R.H. of 55±5%. Finally, the rats were fasted from food except water for 16 hours (from 4 p.m. of the 28th test day to 8 a.m. of the 29th test day), and under anesthesia with pentbarbital sodium (tradename: Nembutal), blood was taken from each rat through the descending abdominal arota. Then, TC, HDL-C, TG, PL, and LPO in the serum were measured in the following manner.
A TC kit-K (supplied by Nippon Shoji Kaisha, Ltd.) was used. The principle of this determination is as follows: The ester of cholesterol in the serum is hydrolyzed with cholesterol-ester hydrolase into free cholesterol and fatty acids. All the free cholesterol is oxidized with cholesterol oxydase to form Δ^4 -cholestenone and hydrogen peroxide. Phenol and 4-aminoantipyrin are oxidatively condensed together by the formed hydrogen peroxide and peroxydase. The produced red quinone coloring matter is measured by colorimetry for absorbance at 500 nm using a spectrophotometer, thereby determining the TC:
The color-developing liquid (3.0 ml) is well mixed with the sample serum (0.02 ml). The mixture once heated at 37° C. for 15 minutes, is measured for absorbance at 500 nm with a spectrophotometer. The found absorbance is denoted by EA. On the other hand, the color-developing liquid (3.0 ml) is well mixed with the standard solution. The mixture is treated and measured for absorbance at 500 nm in the same manner as the above. This found absorbance is denoted by ES. Both EA and ES are determined with reference to the value of the blank test conducted using the color-developing liquid (3.0 ml) alone. [formula]
An HDL-C kit-N (supplied by Nippon Shoji Kaisha, Ltd.) was used. […] (VLDL) and lo density lipoprotein (LDL) in the serum is precipitated by the action of heparin. The precipitate is separated by centrifugation. High density lipoprotein (HDL) is dissolved in the separated supernatant. Esters of cholesterol in this fraction is hydrolyzed with cholesterol-ester hydrolase into free cholesterol and fatty acids. All the free cholesterol is oxidized with cholesterol oxydase to form Δ^4 -cholestenone and hydrogen peroxide. Phenol and 4-aminoantipyrine are oxidatively condensed together by the formed hydrogen peroxide and peroxydase. The produced red quinone coloring matter is measured by colorimetry for absorbance at 500 nm using a spectrophotometer, thereby determining the HDL-C.
A PL kit-K (supplied by Nippon Shoji Kaisha, Ltd.) was used for the determination. Lecithin, sphingomyelin, and lysolecithin are decomposed by phospholipase D into choline and phosphatidic acid, N-acylsphingosyl phosphate, or lysophosphatidic acid, respectively. The resulting choline is quantitatively decomposed by choline oxydase into hydrogen peroxide and betaine. With this hydrogen peroxide, and aid of peroxydase, phenol and 4-aminoantipyrin are condensed into red quinone pigment, then the absorbance at 500 nm of which is measured with a spectrophotometer, thereby determining the PL. […]

[2] = Body weight of rats in method B; design: species or system male Wistar strain rats; details: rat, in vivo
Experimental: as §1

Row | Compound | AI [(TC - HDL-C)/(HDL-C)] [1] | HDL-C in serum [1] [mg/dL] | LPO in serum [1] [nmol/mL] | PL in serum [1] [mg/dL] | TC in serum [1] [mg/dL] | TG in serum [1] [mg/dL] | change in vivo at 1 % in diet ([1]; read-out: AI % of diff.) [%] | change in vivo at 1 % in diet ([1]; read-out: HDL-C % of diff.) [%] | change in vivo at 1 % in diet ([1]; read-out: LPO % of diff.) [%] | change in vivo at 1 % in diet ([1]; read-out: PL % of diff.) [%] | change in vivo at 1 % in diet ([1]; read-out: TG % of diff.) [%] | AI Diff. [1] | HDL-C Diff. [1] | LPO Diff. [1] [nmol/mL] | PL Diff. [1] [mg/dL] | TC % of diff. [1] [%] | TC Diff. [1] [mg/dL] | TG Diff. [1] [mg/dL] | Body weight during feed period, 1st day [2] [g] | HDL-C rise compared with normal diet group [1] | further results
1 | COc1cc(C=C(C)C(=O)OC2CCC34CC35CCC3(C)C(C(C)CCC=C(C)C)CCC3(C)C5CCC4C2(C)C)ccc1O (stereo not drawn) [Example 114, cycloartenyl ester of 4-hydroxy-3-methoxy-α-methylcinnamic acid] | 4.711 | 24.2 | 2.04 | 96.7 | 138.2 | 39.0 | -78.4 | 79.3 | -27.7 | -31 | -31 | -17.05 | +10.7 mg/dl | -0.78 | -43.4 | -55.0 | -169.1 | -17.5 | 105 ± 3.3 | – | Body weight during feed period, 8th day [2]: 145 ± 9.5 g; Body weight during feed period, 15th day [2]: 194 ± 18.0 g; Body weight during feed period, 22nd day [2]: 247 ± 16.6 g; Body weight during feed period, 28th day [2]: 277 ± 14.9 g; Body weight just before blood sampling, 29th day [2]: 265 ± 14.5 g
2 | COc1cc(C=C(C)C(=O)OC2CCC34CC35CCC3(C)C(C(C)CCC(C)=C(C)C)CCC3(C)C5CCC4C2(C)C)ccc1O (stereo not drawn) [Example 116, cyclobranyl ester of 4-hydroxy-3-methoxy-α-methylcinnamic acid] | 1.282 | 61.4 | 2.11 | 97.4 | 140.1 | 54.0 | -94.1 | 355 | -25.2 | -30.5 | -10.8 | -20.48 | +47.9 mg/dl | -0.71 | -42.7 | -54.4 | -167.2 | -6.1 | 106 ± 5.9 | remarkable rises | Body weight during feed period, 8th day [2]: 146 ± 10.0 g; Body weight during feed period, 15th day [2]: 193 ± 17.5 g; Body weight during feed period, 22nd day [2]: 244 ± 15.8 g; Body weight during feed period, 28th day [2]: 273 ± 20.4 g; Body weight just before blood sampling, 29th day [2]: 260 ± 19.0 g
3 | C=C(CCC(C)C1CCC2(C)C3CCC4C(C)(C)C(OC(=O)C(C)=Cc5ccc(O)c(OC)c5)CCC45CC35CCC12C)C(C)C (stereo not drawn) [Example 118, 24-methylenecycloartanyl ester of 4-hydroxy-3-methoxy-α-methylcinnamic acid] | 1.943 | 47.4 | 2.08 | 98.3 | 139.5 | 51.4 | -91.9 | 251 | -26.2 | -29.8 | -9 | -19.82 | +33.9 mg/dl | -0.74 | -41.8 | -54.6 | -168.2 | -5.1 | 106 ± 3.4 | remarkable rises | Body weight during feed period, 8th day [2]: 147 ± 9.2 g; Body weight during feed period, 15th day [2]: 192 ± 17.8 g; Body weight during feed period, 22nd day [2]: 243 ± 15.4 g; Body weight during feed period, 28th day [2]: 274 ± 18.4 g; Body weight just before blood sampling, 29th day [2]: 259 ± 20.4 g
4 | CCC(=Cc1ccc(O)c(OC)c1)C(=O)OC1CCC23CC24CCC2(C)C(C(C)CCC=C(C)C)CCC2(C)C4CCC3C1(C)C (stereo not drawn) [Example 120, cycloartenyl ester of 4-hydroxy-3-methoxy-α-ethylcinnamic acid] | 7.260 | 24.6 | 2.06 | 105.3 | 203.2 | 53.0 | -66.6 | 82.2 | -27 | -24.8 | -6.2 | -14.5 | +11.1 mg/dl | -0.76 | -34.8 | -33.9 | -104.1 | -3.5 | 105 ± 3.2 | – | Body weight during feed period, 8th day [2]: 144 ± 9.4 g; Body weight during feed period, 15th day [2]: 191 ± 18.2 g; Body weight during feed period, 22nd day [2]: 242 ± 15.7 g; Body weight during feed period, 28th day [2]: 272 ± 20.1 g; Body weight just before blood sampling, 29th day [2]: 258 ± 23.0 g
5 | COc1cc(C=CC(=O)OC2CCC34CC35CCC3(C)C(C(C)CCC(C)=C(C)C)CCC3(C)C5CCC4C2(C)C)ccc1N (centres unmarked) [Example 178, Cyclobranyl ester of 4-amino-3-methoxycinnamic acid] | – | – | – | – | – | – | -88.9 | 215 | -36.6 | -28.2 | -28 | -22.35 | +34.4 mg/dl | -1.27 | -49.8 | – | – | -22.8 | – | remarkable rises | TG % of diff. (Table 20) [1]: -54.2%; TG Diff. (Table 20) [1]: -226.9 mg/dL
6 | CCCOc1ccc(N)cc1C=C(C)C(=O)OC1CCC23CC24CCC2(C)C(C(C)CCC=C(C)C)CCC2(C)C4CCC3C1(C)C (stereo not drawn) [Example 195, Cycloartenyl ester of 5-amino-2-propoxy-α-methylcinnamic acid] | – | – | – | – | – | – | -88.3 | 211 | -37.2 | -34.2 | -28.9 | -22.22 | +33.7 mg/dl | -1.29 | -60.4 | – | – | -23.5 | – | remarkable rises | TG % of diff. (Table 20) [1]: -53.3%; TG Diff. (Table 20) [1]: -223.1 mg/dL
7 | C=C(CCC(C)C1CCC2(C)C3CCC4C(C)(C)C(OC(=O)C(C)=Cc5cccc(N)c5)CCC45CC35CCC12C)C(C)C (stereo not drawn) [Example 213, 24-Methylenecycloartanyl ester of m-amino-α-methylcinnamic acid] | – | – | – | – | – | – | -93 | 328 | -38.9 | -34.8 | -29.2 | -23.38 | +52.4 mg/dl | -1.35 | -61.5 | – | – | -23.7 | – | remarkable rises | TG % of diff. (Table 20) [1]: -54.7%; TG Diff. (Table 20) [1]: -229.0 mg/dL
